Test results as given in paper PMC9629815, “MK256 is a novel CDK8 inhibitor with potent antitumor activity in AML through downregulation of the STAT pathway” (Oncotarget, 2022).

What was measured:
[1] = tested on: p-STATs and MCL-1 in MV-4-11 cells; assay: Western blot of STAT pathway in MV-4-11 cells; assay type: cell-based; details: 48 hrs
Method: (§1) For the in vitro western blot study, MV-4-11 and MOLM-14 cells were plated (6-well) at 5 × 10^5 cells per well with medium containing 1% FBS overnight. MK-256 was added in different concentrations at different time points. […] Total protein concentration was measured using the Pierce BCA protein Assay Kit (23227, Thermo Fisher Scientific). Proteins were separated on SDS-PAGE and transferred to Nitrocellulose membrane.

[2] = biological target: CYR2C8 (Homo sapiens, UniProt P10632); assay: Cytochrome P450 inhibition assay; assay type: in vitro ADME; details: 50 uM
Sequence of CYR2C8 (P10632 whole entry): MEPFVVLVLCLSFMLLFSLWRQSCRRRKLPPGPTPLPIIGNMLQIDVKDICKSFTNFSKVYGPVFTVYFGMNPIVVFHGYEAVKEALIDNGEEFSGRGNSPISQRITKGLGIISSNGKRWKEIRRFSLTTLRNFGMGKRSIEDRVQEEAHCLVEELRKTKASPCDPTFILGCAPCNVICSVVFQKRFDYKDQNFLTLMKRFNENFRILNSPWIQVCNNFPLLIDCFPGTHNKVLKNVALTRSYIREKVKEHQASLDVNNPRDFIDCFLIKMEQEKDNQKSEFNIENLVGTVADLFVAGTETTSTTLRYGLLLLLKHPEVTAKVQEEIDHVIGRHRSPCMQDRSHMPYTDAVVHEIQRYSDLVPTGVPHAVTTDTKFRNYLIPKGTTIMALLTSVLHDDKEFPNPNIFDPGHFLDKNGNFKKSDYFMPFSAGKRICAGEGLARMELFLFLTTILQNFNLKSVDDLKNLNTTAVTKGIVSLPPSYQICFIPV

[3] = tested on: MOLM-14 cells; assay: Cell viability dose-response matrix of MK256 and venetoclax; assay type: cell-based; details: Homo sapiens, Venetoclax 0 nM, 72 hrs, read-out: percentage of cell viability
Excerpt: Our earlier experiments showing the clearly increasing expression of BCL-2 in the MOLM-14 cell line led us to ask if there was any combinational effect between MK256 and a BCL-2 inhibitor in MOLM-14 cells. To address this question, we chose venetoclax (ABT-199), an FDA-approved BCL-2 inhibitor for AML and CLL, for the combination study. We treated MOLM-14 cells with MK256 and venetoclax at a series of concentration combinations, measured cell viability, and reported the data in a dose-response matrix (Figure 8). […] We also investigated the apoptotic effect of the combination treatment in the MOLM-14 cell line (Figure 10B).
Figure 10 (A) Dose-response matrix of percentage of cell viability of 10,000 MOLM-14 cells after 72 hrs treatment of MK256 and venetoclax at various concentration combinations. (B) Annexin V staining of 10,000 MOLM-14 cells after 72 hrs treatment of MK256 and venetoclax(ABT199) at various concentration combinations. Status of cells are labeled in the graph at the upper left corner. (C) Tumor growth of MOLM-14 xenograft model. Groups of control; ABT199 (25 mg/kg); ABT199 (25 mg/kg) + MK256 (10 mg/kg); ABT199 25 mg/kg + MK256 (50 mg/kg) were shown in straight line, dotted line, 3 dashed line and 2 dashed line, respectively. ^*** P < 0.001. (D) Body weight percentage of MOLM-14 tumor model. […]

[4] = biological target: CYP2C9 (Homo sapiens, UniProt P11712); assay: Cytochrome P450 inhibition assay; assay type: in vitro ADME; details: 50 uM
Sequence of CYP2C9 (P11712 whole entry): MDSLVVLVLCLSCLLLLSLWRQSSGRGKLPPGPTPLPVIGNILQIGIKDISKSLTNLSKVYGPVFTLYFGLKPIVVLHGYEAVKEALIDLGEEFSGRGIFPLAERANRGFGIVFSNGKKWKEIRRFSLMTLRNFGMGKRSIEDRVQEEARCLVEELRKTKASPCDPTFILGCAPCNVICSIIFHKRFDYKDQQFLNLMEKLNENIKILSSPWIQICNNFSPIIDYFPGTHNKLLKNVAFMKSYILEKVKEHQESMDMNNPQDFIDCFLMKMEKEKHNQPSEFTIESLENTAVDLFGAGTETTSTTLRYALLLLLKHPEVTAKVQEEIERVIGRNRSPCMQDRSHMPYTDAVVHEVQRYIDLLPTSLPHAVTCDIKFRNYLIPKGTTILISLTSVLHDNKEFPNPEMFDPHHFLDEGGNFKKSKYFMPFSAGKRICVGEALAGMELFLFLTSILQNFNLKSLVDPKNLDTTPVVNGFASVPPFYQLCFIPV

[5] = tested on: SET-2; assay: Cell proliferation assay (CellTiter-Glo, 7-day); assay type: cell-based; details: Homo sapiens, SET-2, 168 h
[6] = tested on: p-STAT1 (S727), p-STAT3(S727), p-STAT5(S726) in MOLM-14 xenograft tumors; assay: Pharmacodynamics study in MOLM-14 xenograft model (western blot of tumors); assay type: in vivo, mice; details: 10, 50 and 100 mg/kg oral, 6 hrs; with higher doses
Method: For the in vivo western blot study, to assess gene expression in vivo, tumors were induced in female NOD SCID mice by s.c. inoculation of 5 × 10^6 AML cells suspended in matrigel. Mice bearing tumors of at least 100 mm^3 were treated with MK256. Mice were sacrificed after 6 hrs and tumors were harvested. The tumors were homogenized and lysed in T-per Mammalian Protein Extraction Reagent (78510, Thermo Fisher Scientific) containing protease and phosphatase inhibitors (88669, Thermo Fisher Scientific). Total protein concentration was measured using the Pierce BCA protein Assay Kit (23227, Thermo Fisher Scientific). Proteins were separated on SDS-PAGE and transferred to Nitrocellulose membrane. Immunoblotting was performed using specific antibodies. The following specific antibodies were used: Cell signaling technology: pSTAT1(S727) #8826, pSTAT1(Y701) #9167, STAT1 #14994, pSTAT3 (S727) #9134, pSTAT3(Y705) #9145, STAT3 #9139, pSTAT5(Y694) #4322, STAT5 #25656, b-ACTIN #3700, GAPDH #5174, BCL2 #4223, MCL-1 #94296, Cleaved PARP #9541, Cleaved Caspase3 #9661, IL6ST #12859, SmyD3 #3732, PD-L1 #13684. Invitrogen: IL6R PA5109855. Abcam: pSTAT5(S726) ab128896.

[7] = biological target: hERG (Homo sapiens, UniProt Q12809); assay: hERG safety assay; details: 30 uM
Sequence of hERG (Q12809 whole entry): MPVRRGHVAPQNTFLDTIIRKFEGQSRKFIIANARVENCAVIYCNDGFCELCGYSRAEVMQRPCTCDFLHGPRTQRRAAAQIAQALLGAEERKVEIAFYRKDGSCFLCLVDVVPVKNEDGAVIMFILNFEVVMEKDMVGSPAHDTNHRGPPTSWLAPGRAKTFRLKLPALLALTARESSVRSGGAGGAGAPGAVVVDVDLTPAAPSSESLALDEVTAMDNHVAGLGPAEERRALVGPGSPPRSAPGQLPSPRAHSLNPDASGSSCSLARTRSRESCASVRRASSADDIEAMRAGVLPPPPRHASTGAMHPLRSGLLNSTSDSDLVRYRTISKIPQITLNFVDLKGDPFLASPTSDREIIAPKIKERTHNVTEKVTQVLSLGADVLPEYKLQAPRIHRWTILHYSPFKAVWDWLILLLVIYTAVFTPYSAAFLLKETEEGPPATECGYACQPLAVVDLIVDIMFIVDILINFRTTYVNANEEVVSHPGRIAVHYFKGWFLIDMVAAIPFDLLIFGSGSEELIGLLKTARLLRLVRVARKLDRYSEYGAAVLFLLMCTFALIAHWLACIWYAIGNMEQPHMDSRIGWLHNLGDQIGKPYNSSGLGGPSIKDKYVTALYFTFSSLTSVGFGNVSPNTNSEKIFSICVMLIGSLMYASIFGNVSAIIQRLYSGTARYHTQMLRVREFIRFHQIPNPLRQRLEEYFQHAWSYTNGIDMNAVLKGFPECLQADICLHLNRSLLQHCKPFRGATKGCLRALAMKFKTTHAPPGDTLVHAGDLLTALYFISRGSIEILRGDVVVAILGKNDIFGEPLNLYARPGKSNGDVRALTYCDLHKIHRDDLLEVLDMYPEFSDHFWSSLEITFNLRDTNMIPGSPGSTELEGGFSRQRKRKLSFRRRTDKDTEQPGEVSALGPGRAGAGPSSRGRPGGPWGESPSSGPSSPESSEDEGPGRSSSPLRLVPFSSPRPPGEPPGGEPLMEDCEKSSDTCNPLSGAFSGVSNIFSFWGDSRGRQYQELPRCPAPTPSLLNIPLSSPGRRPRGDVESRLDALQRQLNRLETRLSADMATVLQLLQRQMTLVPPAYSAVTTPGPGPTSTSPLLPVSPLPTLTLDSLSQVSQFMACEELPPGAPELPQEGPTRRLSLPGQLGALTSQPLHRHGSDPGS

[8] = tested on: p-STATs, MCL-1, BCL-2, cleaved Parp, cleaved Caspase 3 in MOLM-14 cells; assay: Western blot of STAT pathway and apoptosis markers in MOLM-14 cells; assay type: cell-based; parameters: targeted p-STATs and MCL-1 levels / expression of BCL-2: dose or concentration left out as unconfirmed
Method: as §1

For `Nc1nccc2c(Br)cc3cc(C(=O)O)ccc3c12` [MK256], the “expression levels of p-STAT1 (S727), p-STAT3(S727), p-STAT5(S726)” value ([1]; 30 nM to 1 uM) was “trend of reduction”, the “expression of MCL-1” value ([1]; 30 nM to 1 uM, dose-dependent) was “reduced expression” and the “expression level of MCL-1, p-STAT3(S727) and p-STAT5(S726)” value ([1]; 1 uM) was “remained at minimal levels”. The “expression level of p-STAT1(S727)” value ([1]; 1 uM) was “abrogated completely”, the “expression levels of p-STAT1(Y701) and p-STAT5(Y694)” value ([1]; high concentrations) was “unaffected” and the “cytochrome P450 inhibition” value [2] was “no inhibition”. For the same compound, the viability at 0.0015 µM ([3]; MK256 1.5 nM) was 110%, the viability at 0.0046 µM ([3]; MK256 4.6 nM) was 101% and the viability at 0.0137 µM ([3]; MK256 13.7 nM) was 103%. For the same compound, the viability at 0.0412 µM ([3]; MK256 41.2 nM) was 103%, the viability at 0.1235 µM ([3]; MK256 123.5 nM) was 100% and the viability at 0.3704 µM ([3]; MK256 370.4 nM) was 90%. The viability at 1.1 µM ([3]; MK256 1100 nM) was 32%, the viability at 10 µM ([3]; MK256 10000 nM) was 0% and the viability at 30 µM ([3]; MK256 30000 nM) was 0%. The “cytochrome P450 inhibition” value [4] was “no inhibition”, the IC50 [5] was 212 nM and the “expression levels of p-STAT1 (S727), p-STAT3(S727), p-STAT5(S726) in tumors” value [6] was “further downregulated”. The “inhibition of hERG” value [7] was “no inhibition”, the “levels of cleaved Parp and cleaved Caspase 3” value ([8]; 30 nM to 3 mM, 48 hr) was “dose-dependent upregulation” and the “p-levels of STATs, time course” value ([8]; 300 nM, 4 hrs and 24 hrs) was “further downregulated in a time-dependent manner”. For the same compound, the “p-STAT1 (S727), p-STAT3(S727), p-STAT5(S726) levels” value ([8]; 2-hrs, various concentrations) was “dose-dependent inhibitions”, the MCL-1 level ([8]; 2 hrs) was “downregulated” and the “expression of BCL-2” value ([8]; 48 hr) was “unexpected upregulation”. The “targeted p-STATs and MCL-1 levels” value ([8]; 48 hr) was “dose-dependent inhibition”.
